The source of these data is patent publication US20230226103A1, “COMPOSITION FOR TREATING AND/OR PREVENTING COGNITIVE IMPAIRMENT OR DEMENTIA” (MiZ Company Limited, priority 2018, published 2023).

Several values for one entry are separate records, joined by “and”; a condition that tells them apart may be missing. Equal values may be shown once. Read-outs that look alike come from different tables or passages of the source.

For data set [1] the following is noted: 4% hydrogen gas 15 minutes per day over 4 weeks. Here is the method: (§1) Elderly women living in a community (n=13, 68.0±3.0 years old, body weight: 66.9±10.3 kg, height: 161.1±5.8 cm) volunteered for participants for the present open-label preliminary experiment (registered in ClinicalTrials.gov, NCT02830854). Individuals with a serious disease or a mental disease had been excluded as they met the exclusion criteria. This study was conducted according to the guideline of the Declaration of Helsinki, and the local ethics committee approved the protocol of the present clinical study. The participants all gave informed consent, and were each asked to keep their usual lifestyle and take meals as usual during the study. […] Mini Mental State Examination (MMSE) scores before the initiation of the study and 4 weeks thereafter were used to evaluate the therapeutic effect. In addition, assessment of other cognitive ability markers and evaluation of side effects were conducted based on the results before the initiation of the study and 4 weeks thereafter. The cognitive functions of the participants were evaluated by using the MMSE and the Alzheimer's Disease Assessment Scale-Cognitive subscale (ADAS-Cog). The MMSE is a 30-point questionnaire widely used in clinical practice to determine the degree of cognitive impairment of an elderly individual. The ADAS-Cog is a method, consisting of 11 tasks, of assessing cognitive abilities, and determines memory impairment, language impairment, praxis impairment, attention deficits, and other cognitive abilities to test for dementia. In addition to the assessments, the participants were asked to report adverse events during the study through self-assessment or an open-ended questionnaire on side effects (e.g., queasy feeling, headache). Statistical significance was determined by using a Wilcoxon signed-rank test (before the initiation of the study vs. 4 weeks thereafter). If p≤0.05 was satisfied, the result was considered statistically significant.

The test system of data set [2] is cognitive functions of women aged 65 years or more. Here is the method: as §1
Data set [3] relates to patients with mild to moderate dementia of the Alzheimer's type. Particulars: 10 mg donepezil, 24-week (6-month) administration; rating score 0 to 70 points; cited from earlier work.

Turning to `[HH]` [H2, hydrogen gas], the “Adverse events / side effects associated with inhalation” value in data set [1] is recorded as “no sign of side effects”. Further, the “Adverse events / side effects associated with inhalation” value in data set [1] (listed as hydrogen gas) is on record as “no adverse event”. For the same compound, in data set [2] (4% H2 inhaled 15 minutes per day over 4 weeks, baseline 3.6 ± 1.0), the “ADAS-Cog Language reproduction test After 4 weeks” value is on record as 8.1 ± 1.2. Also, the “ADAS-Cog Language recognition After 4 weeks” value in data set [2] (4% H2 inhaled 15 minutes per day over 4 weeks, baseline 4.2 ± 3.2) stood at 1.1 ± 1.0. In data set [2] (after 4 weeks vs baseline), the “ADAS-Cog Language recognition % change” value is listed as −40.1% and the “ADAS-Cog Language reproduction test % change” value worked out at 140.0%. Also, the “MMSE Total score % change” value in data set [2] (after 4 weeks vs baseline, 4% H2 inhaled 15 minutes per day) was 13.7% and 14.2%. The “Number of women whose MMSE scores increased” value in data set [2] (among 13 women, after administration) is 12. Also, the “Improvement in ADAS-Cog converted from MMSE (Improvement in MMSE×2.33)” value in data set [2] (conversion formula BMC Neurol. 2002, 2:6) was 8.16 points. Further, the “Other 9 items in ADAS-Cog scoring, score” value in data set [2] (correctly executed in both tests (baseline and after 4 weeks)) was determined as 0. The “Cognitive functions (result in words)” value in data set [2] (elderly women with mild cognitive impairment, 4% hydrogen gas 15 minutes per day over 4 weeks) is on record as “improved to normal levels”. In addition, in data set [2] (inhalation of hydrogen gas for a month), the “Improvement in the MMSE” value is recorded as 3.50 points.

Take `COc1cc2c(cc1OC)C(=O)C(CC1CCN(Cc3ccccc3)CC1)C2` (stereo not shown) [donepezil]: the “Reduction of ADAS-Cog score from the score at initiation of administration” value in data set [3] is reported as “approximately 1.4 points”.
